In ChEMBL document CHEMBL1201862, “PubChem BioAssay data set” (2004):
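Following 48 hours of exposure in 96-well plates, responses at five concentrations were used to interpolate endpoints linearly. GI50 = concentration required for 50% inhibition of growth.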 Calls of active or inactive are those of the source. Rule as the data show it: active = GI50 up to about 1.1 µM and inactive = higher.

Legend:
Experiment in all cases: NCI-60 cell line screen, 48 h
HL-60 = system: HL-60
EKVX = system: EKVX
NCI-H226 = system: NCI-H226
OVCAR-8 = system: OVCAR-8
SK-MEL-5 = system: SK-MEL-5
CCRF-CEM = system: CCRF-CEM
SNB-19 = system: SNB-19
A549 = system: A549
SR = system: SR
SF-295 = system: SF-295
HOP-92 = system: HOP-92
SNB-75 = system: SNB-75
HCC 2998 = system: HCC 2998
TK-10 = system: TK-10
MDA-MB-435 = system: MDA-MB-435
HCT-116 = system: HCT-116
UACC-62 = system: UACC-62
IGROV-1 = system: IGROV-1
RPMI-8226 = system: RPMI-8226
ACHN = system: ACHN

| SMILES | GI50 (HL-60) | GI50 (EKVX) | GI50 (NCI-H226) | GI50 (OVCAR-8) | GI50 (SK-MEL-5) | GI50 (CCRF-CEM) | GI50 (SNB-19) | GI50 (A549) | GI50 (SR) | GI50 (SF-295) | GI50 (HOP-92) | GI50 (SNB-75) | GI50 (HCC 2998) | GI50 (TK-10) | GI50 (MDA-MB-435) | GI50 (HCT-116) | GI50 (UACC-62) | GI50 (IGROV-1) | GI50 (RPMI-8226) | GI50 (ACHN) |
| --- | --- | --- | --- | --- | --- | --- | --- | --- | --- | --- | --- | --- | --- | --- | --- | --- | --- | --- | --- | --- |
| COCN1C(=O)[C@@H]2CCCN2C(=O)c2ccc([N+](=O)[O-])cc21 | 87.5 µM (inactive) | > 100 µM (inactive) | > 100 µM (inactive) | > 100 µM (inactive) | > 100 µM (inactive) | > 100 µM (inactive) | > 100 µM (inactive) | > 100 µM (inactive) | 48.4 µM (inactive) | > 100 µM (inactive) | > 100 µM (inactive) | > 100 µM (inactive) | > 100 µM (inactive) | > 100 µM (inactive) | > 100 µM (inactive) | > 100 µM (inactive) | > 100 µM (inactive) | > 100 µM (inactive) | > 100 µM (inactive) | > 100 µM (inactive) |
| O=C1C2C3C4C1C1C2[C@H](OCc2ccccc2)C3C1[C@H]4OCc1ccccc1 (stereo not given in full) | 22.5 µM (inactive) | 27.6 µM (inactive) | 76.9 µM (inactive) | > 100 µM (inactive) | 36.3 µM (inactive) | > 100 µM (inactive) | 67.9 µM (inactive) | 40.9 µM (inactive) | 19.1 µM (inactive) | > 100 µM (inactive) | 17 µM (inactive) | 38.9 µM (inactive) | 31.3 µM (inactive) | > 100 µM (inactive) | 61.4 µM (inactive) | 50.5 µM (inactive) | 41.5 µM (inactive) | > 100 µM (inactive) | 36.6 µM (inactive) | 47.6 µM (inactive) |
| O=C(c1ccccc1)c1nc2ccc(Cl)cc2cc1C(Br)Br | 0.222 µM (active) | 0.493 µM (active) | 1.68 µM (inactive) | 0.242 µM (active) | 0.692 µM (active) | 0.395 µM (active) | 0.425 µM (active) | 1.44 µM (inactive) | 1.68 µM (inactive) | 0.261 µM (active) | 0.527 µM (active) | 0.278 µM (active) | 0.316 µM (active) | 0.687 µM (active) | 0.282 µM (active) | 0.108 µM (active) | 0.569 µM (active) | 0.735 µM (active) | 0.229 µM (active) | 0.263 µM (active) |
| COC(=O)[C@@H]1C[C@H]([Se]c2ccccc2)CN1S(=O)(=O)c1ccc(C)cc1 | 36.3 µM (inactive) | > 100 µM (inactive) | > 100 µM (inactive) | > 100 µM (inactive) | 45.2 µM (inactive) | 61 µM (inactive) | > 100 µM (inactive) | 51.8 µM (inactive) | 32.1 µM (inactive) | 40.9 µM (inactive) | > 100 µM (inactive) | 2.87 µM (inactive) | > 100 µM (inactive) | > 100 µM (inactive) | 47.1 µM (inactive) | 67.3 µM (inactive) | > 100 µM (inactive) | > 100 µM (inactive) | 59.4 µM (inactive) | > 100 µM (inactive) |
| CC(C)(C)c1cc(C(=O)/C=C/c2cc[nH]n2)cc(C(C)(C)C)c1O | 2.23 µM (inactive) | 13.4 µM (inactive) | 5.73 µM (inactive) | 2.39 µM (inactive) | 7.52 µM (inactive) | 2.07 µM (inactive) | 3.87 µM (inactive) | 3.02 µM (inactive) | 1.19 µM (inactive) | 13.7 µM (inactive) | 2.21 µM (inactive) | 4.61 µM (inactive) | 1.88 µM (inactive) | 1.54 µM (inactive) | 2.77 µM (inactive) | 2.43 µM (inactive) | 3.26 µM (inactive) | 1.93 µM (inactive) | 1.06 µM (active) | 1.62 µM (inactive) |
| O=S(=O)(O)CCCc1cccc2ccccc12 | 31.3 µM (inactive) | > 100 µM (inactive) | > 100 µM (inactive) | > 100 µM (inactive) | > 100 µM (inactive) | > 100 µM (inactive) | > 100 µM (inactive) | > 100 µM (inactive) | > 100 µM (inactive) | > 100 µM (inactive) | > 100 µM (inactive) | > 100 µM (inactive) | > 100 µM (inactive) | > 100 µM (inactive) | > 100 µM (inactive) | > 100 µM (inactive) | > 100 µM (inactive) | > 100 µM (inactive) | > 100 µM (inactive) | > 100 µM (inactive) |
| C=C(Cl)[C@@](Cl)(CBr)CC[C@@H](Br)C(C)(C)Cl | 0.3 µM (active) | 2.97 µM (inactive) | 26.2 µM (inactive) | 0.466 µM (active) | 2.67 µM (inactive) | 15.8 µM (inactive) | 0.499 µM (active) | 1.43 µM (inactive) | 15.4 µM (inactive) | 0.207 µM (active) | 0.292 µM (active) | 0.24 µM (active) | 0.488 µM (active) | 0.269 µM (active) | 1.4 µM (inactive) | 0.25 µM (active) | 0.745 µM (active) | 11.7 µM (inactive) | 0.0566 µM (active) | 0.149 µM (active) |
| C=C(C)C(=O)OC1CC2(C)OC2CC(OC(C)=O)/C(C)=C/C2OC(=O)C(=C)C21 (stereo not given) | 0.207 µM (active) | 3.1 µM (inactive) | 17.6 µM (inactive) | 2.03 µM (inactive) | 8.2 µM (inactive) | 0.0895 µM (active) | 15.2 µM (inactive) | 19 µM (inactive) | 1.08 µM (active) | 16.2 µM (inactive) | 3.64 µM (inactive) | 15.5 µM (inactive) | 6.34 µM (inactive) | 3.45 µM (inactive) | 1.18 µM (inactive) | 1.7 µM (inactive) | 4.57 µM (inactive) | 4.17 µM (inactive) | 0.349 µM (active) | 1.49 µM (inactive) |
